From PubChem BioAssay AID624265 (Broad Institute, 2012)
Active and inactive are the calls of the source.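 How the source made its calls: active means at a dose no more than twice the top valid tested dose, the fitted curve drops below -35% activity change; inactive means the rest, rising-direction activity included.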

Test: NIH3T3 cell viability loss, ATP content – CellTiter-Glo luminescence, cherry-pick, set 2, cytotoxicity control for HSP40 inhibitor project, dose response (AID 624265);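 further: cells exposed to compound for 48 hours before the ATP read; 0% = median neutral control signal and -100% = no luminescence left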
Details: NIH3T3 viability, CellTiter-Glo ATP luminescence; at 16 µM (top of the series)

Row | SMILES | activity change, negative = toxicity
1 | CC(C)C(=O)NC(c1ccco1)c1ccc2cccnc2c1O (configuration not stated) | -30% (inactive)

Same assay, conditions: NIH3T3 viability, CellTiter-Glo ATP luminescence; at 50 µM (top of the series)

Row | SMILES | activity change, negative = toxicity
2 | CCCC1CCC(c2ccc(/C(N)=N/O)cc2)CC1 (configuration not stated) | -4% (inactive)
3 | CNc1cc(CSC)nc(SCc2ccc(Cl)cc2Cl)n1 | 18.6% (inactive)
4 | COc1cc(NS(=O)(=O)c2ccc(C)cc2)c2ncccc2c1 | 5.44% (inactive)
5 | O=P(Nc1cccnc1)(Oc1ccccc1Cl)Oc1ccccc1Cl | -1.87% (inactive)
6 | O=c1c2ccccc2nc(-c2cccc(Cl)c2)n1O | 4.83% (inactive)
7 | CC(C)NC(=O)NC(=O)COC(=O)c1ccc([N+](=O)[O-])cc1Cl | -6.58% (inactive)
8 | O=Cc1cc(N=Nc2ccccc2Cl)ccc1O | -3.57% (inactive)
9 | O=C(NCCC1=CCCCC1)c1c(O)nc2sccn2c1=O | 15.1% (inactive)
10 | Cc1cc(C(=O)COC(=O)Cc2n[nH]c(=O)c3ccccc23)c(C)n1-c1cccc(C(F)(F)F)c1 | 24.5% (inactive)
11 | O=C1c2ccccc2-n2c1nc1ccccc1c2=O | -25.8% (inactive)
12 | COc1cnc(-c2ccccn2)nc1Sc1ccc(C)cc1 | -14.4% (inactive)
13 | O=C(c1ccccc1)c1coc2c1C(=O)c1ccccc1C2=O | -10.3% (inactive)
14 | Clc1ccc(C(Cn2ccnc2)OCc2c(Cl)cccc2Cl)c(Cl)c1 (configuration not stated) | 0.224% (inactive)
15 | C[C@@]12CCC3[C@@](CCC4[C@@]3(C)CCC[C@@]4(C)C(=O)NCc3ccccc3)(CC1=O)C2 (some centres not stated) | 2.89% (inactive)
16 | O/N=C(\c1ccc(Cl)cc1Cl)c1ncc(C(F)(F)F)cc1Cl | -0.787% (inactive)
17 | CC1Oc2ccccc2C=C1/C=N/Nc1ccc(C(=O)O)cc1 (configuration not stated) | 1.68% (inactive)
18 | S=C(NCc1ccco1)Nc1ccc(Oc2ccc(Cl)cc2)cc1 | 10.2% (inactive)
19 | CC(=O)NC(c1cccc([N+](=O)[O-])c1)c1ccc2cccnc2c1O (configuration not stated) | -27.2% (inactive)
20 | C(=C1c2ccccc2-c2ccccc21)c1ccncc1 | 14.2% (inactive)
21 | CCn1c(CNc2ccc(Cl)cc2)nnc1SCc1ccc(Cl)cc1 | 12.6% (inactive)
22 | Cc1cc(/C=C2\SC(=S)N(C)C2=O)c(C)n1-c1ccc(O)cc1 | 6.11% (inactive)
23 | O=S1OC(c2ccccc2)c2cc(Cl)ccc21 (configuration not stated) | 8.75% (inactive)
24 | CCCCNc1c(-c2ccc(-c3ccc(OC)cc3)c(OC)c2)nc2ccccn12 | 2.06% (inactive)

Row | SMILES | activity change, negative = toxicity
25 | CC1(C)C=Cc2c(ccc3c2OC[C@@H](c2ccc(O)cc2O)C3)O1 | 16.2% (inactive)
26 | CCCCCCSc1ccc(-c2nc3ccccn3c2NCCCC)cc1 | 14% (inactive)
27 | Cn1nc(C(F)(F)F)c(C#N)c1N1CCN(c2ccc(F)cc2)CC1 | 21.3% (inactive)
28 | CCCCc1ccc(-n2c(Cc3cccs3)n[nH]c2=S)cc1 | -7.72% (inactive)
29 | Cc1nc(SCc2ccc(OCCC(C)C)cc2)n[nH]1 | 3.46% (inactive)
30 | CCCS(=O)(=O)c1c(S(=O)(=O)CCC)c2c(C)cccn2c1C(=O)N/N=C/c1cc(O)cc(O)c1 | -15.8% (inactive)
31 | Cc1cc(Nc2ccccc2)nn1C(=O)c1ccccc1 | 10% (inactive)
32 | COC(OC)c1ccc(C#N)c(SCc2ccccc2)n1 | -6.85% (inactive)
33 | CCOC(=O)N1C(=O)C2(CCCCC2)N(c2ccccc2Cl)C1=S | -8.13% (inactive)
34 | O=C(N/N=C/c1ccc[nH]1)c1sc2ccccc2c1Cl | -15.3% (inactive)
35 | CCN1C(=O)C(CC(=O)Nc2ccccc2Cl)N(NC(=O)c2cccc(F)c2)C1=S (configuration not stated) | 11.9% (inactive)
36 | CCC(C)Sc1cccc(-c2nc3ccccn3c2NCc2ccccc2)c1 (configuration not stated) | -15.9% (inactive)
37 | CCCCCCCn1c(=O)c(C(=O)OC)c(N)c2ccccc21 | -3.81% (inactive)
38 | Oc1c(Br)cc(-c2ccccc2)cc1Br | 10.3% (inactive)
39 | Cc1cccc(Nc2nc(-c3ccc(O)cc3O)cs2)n1 | 0.061% (inactive)
40 | c1ccc(Cn2cc(-c3cccnc3)cn2)cc1 | -0.362% (inactive)
41 | CCCCC(=O)NC(c1ccco1)c1cc(Cl)c2cccnc2c1O (configuration not stated) | -22.9% (inactive)
42 | Oc1c(I)cc(Cl)c2cccnc12 | -13.1% (inactive)
43 | Clc1ccc(-c2n[nH]c3c2CCC3)cc1Cl | 1.25% (inactive)
44 | COc1cc(/C=N/O)cc(Br)c1OCc1cccc(Cl)c1 | 3.56% (inactive)
45 | CCCn1nc(C(=O)N2CCN(S(=O)(=O)c3ccc(C)c(C)c3)CC2)c2ccccc2c1=O | 2.59% (inactive)
46 | COC(=O)C1=C(C)NC(C)=C(C(=O)OCC(C)C)C1c1ccccc1[N+](=O)[O-] (configuration not stated) | -14.8% (inactive)
47 | O=C1OCC(CO)(CO)N=C1NNc1ccc(Cl)c(Cl)c1 | 2.06% (inactive)

Row | SMILES | activity change, negative = toxicity
48 | CC(C)(C)C(=O)C(Oc1ccc(Cl)cc1)n1cncn1 (configuration not stated) | 9.05% (inactive)
49 | O=C(NCc1ccncc1)c1ccccc1Nc1ccc(SC(F)F)cc1 | 3.29% (inactive)
50 | O=C(c1ccccc1)N1C(=O)C(c2ccccc2)Oc2ccccc21 (configuration not stated) | 5.11% (inactive)
51 | O=C(O)CSc1nc(-c2ccc(Cl)cc2)nc2c1oc1ccccc12 | -3.22% (inactive)
52 | O=c1c(O)c(-c2ccccc2)oc2ccccc12 | -0.823% (inactive)
53 | C[n+]1c2cc(N)ccc2cc2ccc(N)cc21 | 14.2% (inactive)
54 | CCCc1cc(C(N)=O)c(NC(=O)c2cc(C)on2)s1 | 12.3% (inactive)
55 | C=CCn1c(-c2cc(-c3ccc(C)cc3)nc3ccccc23)n[nH]c1=S | 15.5% (inactive)
56 | O=C(OCC(=O)C12CC3CC(CC(C3)C1)C2)c1ccc(O)cc1 | 0.345% (inactive)
57 | COc1ccc2oc(=O)c(-c3csc(Nc4cccc(O)c4)n3)cc2c1 | 4.36% (inactive)
58 | CCCn1c(=O)c(C(=O)NCc2ccc(OC)c(OC)c2)c(O)c2ccccc21 | 30.8% (inactive)
59 | COc1ccccc1C1CCN(C(=O)c2ccc(Cl)cc2)CC1 | 6.31% (inactive)
60 | Clc1nc(-c2ccccn2)nc2scc(-c3ccccc3)c12 | 5.16% (inactive)
61 | c1ccc(-c2ccc(OCCCn3cncn3)cc2)cc1 | 5.17% (inactive)
62 | Cn1ccc(=Nc2ccc(NC(=O)c3ccc(N=c4ccn(C)c5ccc([N+](=O)[O-])cc45)cc3)cc2)cc1 | 1.51% (inactive)
63 | CC1=CC(C)(C)N(S(=O)(=O)c2ccc(C)cc2)c2ccc(C)cc21 | 9.86% (inactive)
64 | Oc1c(CN2CCCC2)cc(COCc2ccccc2)c2cccnc12 | -2.61% (inactive)
65 | O=C(CSc1ccc(-c2ccccn2)nn1)NCc1ccc(F)cc1 | -2.59% (inactive)
66 | O=C(/C(=N/N=C/c1ccc(O)c(O)c1O)c1ccccc1)c1ccccc1 | -5.73% (inactive)
67 | COc1ccc(N(C(=O)c2ccncc2)S(=O)(=O)c2ccc(F)cc2)cc1 | 0.026% (inactive)
68 | O=C(O)c1c(NC(=O)N2CCCC2)sc2c1CCCC2 | 19.6% (inactive)
69 | Cc1ccc(Sc2ccc(NC(=O)CCl)cc2)cc1C | 2.95% (inactive)
70 | Cc1cccc(N2CCN(C(=O)C3COc4ccccc4O3)CC2)c1C (configuration not stated) | -5.05% (inactive)

Row | SMILES | activity change, negative = toxicity
71 | O=C(c1ccc(-c2ccccc2)cc1)C1CCCN(C(=O)c2cncs2)C1 (configuration not stated) | -8.68% (inactive)
72 | CCCCn1c(=O)c(C(=O)NCc2ccncc2)c(O)c2ccccc21 | 25% (inactive)
73 | O=C(O)c1ccccc1NC(c1ccccc1)c1ccc2cccnc2c1O (configuration not stated) | -15.4% (inactive)
74 | O/N=C/c1cc(Br)ccc1OCc1ccccc1F | 7.25% (inactive)
75 | O=C(COc1ccccc1F)Nc1nc(-c2ccccn2)cs1 | -8.96% (inactive)
76 | CC1CCc2c(C(=O)Nc3ccccn3)csc2C1 (configuration not stated) | -3.05% (inactive)
77 | COC(=O)COC(=O)c1ccccc1NC(=O)c1ccccc1 | -14.7% (inactive)
78 | [O-][n+]1cccc2c(Br)cc(Br)c(O)c21 | -12.1% (inactive)
79 | O=C(NOC(=O)c1ccccc1)c1ccccc1 | -12.1% (inactive)
80 | COc1ccccc1-c1sc2cc3c(cc2c1C#Cc1cncn1C)OCO3 | 17.2% (inactive)
81 | COc1cc2c(c(OC)c1OC)-c1ccc(O)c(=O)cc1[C@@H](NC(C)=O)CC2 | 4.18% (inactive)
82 | CCn1c(CNc2ccc(Cl)cc2)nnc1SCc1ccccc1 | -7.39% (inactive)
83 | CCOc1ccc(N/N=C(/C#N)C(N)=O)cc1 | 9.15% (inactive)
84 | Cc1ccc(NC2(c3nnnn3-c3c(C)cccc3C)CCCCC2)cc1 | 0.981% (inactive)
85 | Cc1ccc(NC(=O)CN(C)C(=O)c2cccnc2Nc2cccc(C(F)(F)F)c2)cc1 | -0.151% (inactive)
86 | Nc1cc2c3ccccc3ccc2c2ccccc12 | -1.86% (inactive)
87 | C=CCNc1nc(-c2ccccn2)nnc1-c1ccccc1 | -23.8% (inactive)
88 | CC1(C)C2CCC1(C)C(OC(=O)c1ccc(O)cc1)C2 (configuration not stated) | -0.777% (inactive)
89 | Cc1c(C(=O)O)cccc1-c1ccc(/C=N/Nc2ccc(Br)cc2)o1 | -0.158% (inactive)
90 | COc1cnc(-c2ccccn2)nc1Sc1ccccc1 | 9.22% (inactive)
91 | Cc1cc(C)c(C(=O)CC(=O)c2cccnc2)c(C)c1 | 8.73% (inactive)
92 | Cc1nc2ccc(C(=O)NCc3ccc4c(c3)OCO4)cc2s1 | 1.22% (inactive)
